pEC50: −log10 of the molar value. Like-named read-outs stand apart in the source and are kept apart here. *1 amine or outer side, *2 acyl side, *3 side chain or, on linkers, in order; H or OH if unused. Where a SMILES comes first, the peptide text is derived from it. Bridges are numbered along the chain shown (N, C = ends). Where no end group is shown, it is not given here. [ ]: non-standard residue; d: D form. ξ: configuration not given here. ξαMeNle(6-ylidene) = CC(CCCC=[*:3])(N[*:1])C(=O)[*:2]; X1 = CC(CCCCCCC=[*:3])(N[*:1])C(=O)[*:2]
What was measured:
[1] = system: 12O53, epithelial (glioblastoma, GMB); type: cell-based, human
Source text: [drawing 12] a L birradical corresponding to -(CH2)3-CH═CH-(CH2)3- (for the case of NS02) or -(CH2)6-CH═CH-(CH2)3- (for the cases NS10, NS16 and Na05) links both Xs radicals in each sequence, and CPP2 corresponds to penetratine peptide. Cell Lines: NCI-H524, lung (small cell lung cancer, SCLC), ATCC-CRL-5831 RG1, epithelial (glioblastoma, GMB), from surgical specimens from patients GMB-27, epithelial (glioblastoma, GMB), from surgical specimens from patients 12O15, epithelial (glioblastoma, GMB), from surgical specimens from patients 12O53, epithelial (glioblastoma, GMB), from surgical specimens from patients 12O89, epithelial (glioblastoma, GMB), from surgical specimens from patients RG6, epithelial (glioblastoma, GMB), from surgical specimens from patients RG4, epithelial (glioblastoma, GMB), from surgical specimens from patients RG5, epithelial (glioblastoma, GMB), from surgical specimens from patients Cell Culture During the amplification step and the assays adherent cells were rinsed with DPBS (Dulbecco's Phosphate Buffered Saline, Sigma D1283) three times and afterward treated for 5 minutes with trypsin ([0.5 g/ml]/EDTA [0.2 g/ml]) (Gibco-BRL, 15400054) in solution of DPBS at 37° C., and, once detached, transferred in the culturing medium. No-adherent cells were dissociated with Accumax, centrifuged and transferred in the culturing medium. Cells were counted in a Neubauer chamber after labelling with Tripan-Blue. […] NCI-H524 were seeded at a density of 2500 cells/well in 96 well plates; […]6, 12015, 12089 and GBM-27 were dissociated with Accumax and plate on p96 wells covered with Matrigel. After 24 h, the compounds to be tested were added to calculate the dose/response curve at the starting concentration of 100 μM with serial dilutions (1:1). Controls are the untreated cells. Each experiment was performed in triplicate. Cells were incubated during 72-96 h in incubator under CO2 atmosphere at 37° C. Cell viability was measured by means of Alamar Blue® (Biosource DAL1100) and […], after treatment with Propidium iodide and Hoechst (GE Healthcare), following manufacturer instructions. Alamar Blue: 10 μl Alamar Blue solution was added to each well and the plates were incubated for […] in the incubator. Fluorescence ratio at 535/590 (excitation/emission) was measured in Cytofluor (Millipore) fluorimeter. Blank control was determined by lysis of untreated cells with con 2% of Triton X100, right before adding Alamar Blue solution. […] of propidium iodide and/or Hoechst solution was added to each well and the plates were incubated for 10 minutes protected by light. Control samples were represented by untreated cells and cell treated with 100% DMSO. Fluorescent stained cells which corresponds to death cells were detected by Cytell Imaging System and their amount calculated. % Viability=Number of non-blue cells×100/Number of total cells Statistics Data analysis was performed calculating the percentage of cell viability normalized vs. the values of negative control, which was considered equal to 100%. The dose/response curve was fitted through the sigmoidal equation dose-response (variable slope) and the EC50 values were calculated as follow: Y=Bottom+(Top-Bottom)/(1+10^{[(Log EC50-X)*HillSlope]}, where: X is compound concentration (log scale) and Y is the response

tumor cell lines = test: Anti-cancer activity in tumor cell lines (summary statements); type: cell-based
Method: NCI-H524 were seeded at a density of 2500 cells/well in 96 well plates; […]6, 12015, 12089 and GBM-27 were dissociated with Accumax and plate on p96 wells covered with Matrigel. After 24 h, the compounds to be tested were added to calculate the dose/response curve at the starting concentration of 100 μM with serial dilutions (1:1). Controls are the untreated cells. Each experiment was performed in triplicate. Cells were incubated during 72-96 h in incubator under CO2 atmosphere at 37° C. Cell viability was measured by means of Alamar Blue® (Biosource DAL1100) and […], after treatment with Propidium iodide and Hoechst (GE Healthcare), following manufacturer instructions. Data analysis was performed calculating the percentage of cell viability normalized vs. the values of negative control, which was considered equal to 100%. The dose/response curve was fitted through the sigmoidal equation dose-response (variable slope) and the EC50 values were calculated as follow: Y=Bottom+(Top-Bottom)/(1+10^{[(Log EC50-X)*HillSlope]}, where: X is compound concentration (log scale) and Y is the response

[2] = system: RG1, epithelial (glioblastoma, GMB)
Method: Alamar Blue: 10 μl Alamar Blue solution was added to each well and the plates were incubated for 4 in the incubator. Fluorescence ratio at 535/590 (excitation/emission) was measured in Cytofluor (Millipore) fluorimeter. Blank control was determined by lysis of untreated cells with con 2% of Triton X100, right before adding Alamar Blue solution.

[3] = system: 12O15, epithelial (glioblastoma, GMB); type: cell-based, human
Source text: (§1) [drawing 12] a L birradical corresponding to —(CH2)3—CH═CH—(CH2)3— (for the case of NS02) or —(CH2)6—CH═CH—(CH2)3— (for the cases NS10, NS16 and Na05) links both Xs radicals in each sequence, and CPP2 corresponds to penetratine peptide. Cell Lines: NCI-H524, lung (small cell lung cancer, SCLC), ATCC-CRL-5831 RG1, epithelial (glioblastoma, GMB), from surgical specimens from patients GMB-27, epithelial (glioblastoma, GMB), from surgical specimens from patients 12O15, epithelial (glioblastoma, GMB), from surgical specimens from patients 12O53, epithelial (glioblastoma, GMB), from surgical specimens from patients 12O89, epithelial (glioblastoma, GMB), from surgical specimens from patients RG6, epithelial (glioblastoma, GMB), from surgical specimens from patients RG4, epithelial (glioblastoma, GMB), from surgical specimens from patients RG5, epithelial (glioblastoma, GMB), from surgical specimens from patients Cell Culture
(§2) Cell lines NCI-H524 were cultured in incubator at 37° C. in RPMI-1640 (Sigma R8758) medium with 10% of fetal bovine serum inactivated (FBS) and 2 mM glutamine (Sigma G7513). Cell line RG1, RG4, RG5, RG6, 12015, 12089 and GBM-27 were cultured in incubator under CO2 (6%) at 37° C. in complete medium (Neurobasal+B27+Glutamax+Growth factors).
(§3) During the amplification step and the assays adherent cells were rinsed with DPBS (Dulbecco's Phosphate Buffered Saline, Sigma D1283) three times and afterward treated for 5 minutes with trypsin ([0.5 g/ml]/EDTA [0.2 g/ml]) (Gibco-BRL, 15400054) in solution of DPBS at 37° C., and, once detached, transferred in the culturing medium. No-adherent cells were dissociated with Accumax, centrifuged and transferred in the culturing medium. Cells were counted in a Neubauer chamber after labelling with Tripan-Blue.
(§4) NCI-H524 were seeded at a density of 2500 cells/well in 96 well plates; RG1, RG4, RG5, RG6, 12015, 12089 and GBM-27 were dissociated with Accumax and plate on p96 wells covered with Matrigel. After 24 h, the compounds to be tested were added to calculate the dose/response curve at the starting concentration of 100 μM with serial dilutions (1:1). Controls are the untreated cells. Each experiment was performed in triplicate.
(§5) Cells were incubated during 72-96 h in incubator under CO2 atmosphere at 37° C. Cell viability was measured by means of Alamar Blue® (Biosource DAL1100) and CYTELL™, after treatment with Propidium iodide and Hoechst (GE Healthcare), following manufacturer instructions.
(§6) Alamar Blue: 10 μl Alamar Blue solution was added to each well and the plates were incubated for […] in the incubator. Fluorescence ratio at 535/590 (excitation/emission) was measured in Cytofluor (Millipore) fluorimeter. Blank control was determined by lysis of untreated cells with con 2% of Triton X100, right before adding Alamar Blue solution.
(§7) CYTELL™: 10 μl of propidium iodide and/or Hoechst solution was added to each well and the plates were incubated for 10 minutes protected by light. Control samples were represented by untreated cells and cell treated with 100% DMSO. Fluorescent stained cells which corresponds to death cells were detected by Cytell Imaging System and their amount calculated. % Viability=Number of non-blue cells×100/Number of total cells Statistics
(§8) Data analysis was performed calculating the percentage of cell viability normalized vs. the values of negative control, which was considered equal to 100%. The dose/response curve was fitted through the sigmoidal equation dose-response (variable slope) and the EC50 values were calculated as follow: Y=Bottom+(Top−Bottom)/(1+10^{[(Log EC50−X)*HillSlope]}, where: X is compound concentration (log scale) and Y is the response

[4] = system: 12O89, epithelial (glioblastoma, GMB); type: cell-based, human
Source text: as §1, §2, §3, §4, §5, §6, §7, §8

[5] = system: GBM27 (GMB-27), epithelial (glioblastoma); type: cell-based, human
Source text: as §1, §2, §3, §4, §5, §6, §7, §8

[6] = system: RG4, epithelial (glioblastoma, GMB); type: cell-based, human
Source text: as §1, §2, §3, §4, §5, §6, §7, §8

[7] = system: RG5, epithelial (glioblastoma, GMB); type: cell-based, human
Source text: as §1, §2, §3, §4, §5, §6, §7, §8

[8] = system: RG6, epithelial (glioblastoma, GMB); type: cell-based, human
Source text: as §1, §2, §3, §4, §5, §6, §7, §8

[9] = system: NCI-H524, lung (small cell lung cancer, SCLC)
Source text: Cell Lines: NCI-H524, lung (small cell lung cancer, SCLC), ATCC-CRL-5831 RG1, epithelial (glioblastoma, GMB), from surgical specimens from patients GMB-27, epithelial (glioblastoma, GMB), from surgical specimens from patients 12O15, epithelial (glioblastoma, GMB), from surgical specimens from patients 12O53, epithelial (glioblastoma, GMB), from surgical specimens from patients 12O89, epithelial (glioblastoma, GMB), from surgical specimens from patients RG6, epithelial (glioblastoma, GMB), from surgical specimens from patients RG4, epithelial (glioblastoma, GMB), from surgical specimens from patients RG5, epithelial (glioblastoma, GMB), from surgical specimens from patients Cell Culture […]
During the amplification step and the assays adherent cells were rinsed with DPBS (Dulbecco's Phosphate Buffered Saline, Sigma D1283) three times and afterward treated for 5 minutes with trypsin ([0.5 g/ml]/EDTA [0.2 g/ml]) (Gibco-BRL, 15400054) in solution of DPBS at 37° C., and, once detached, transferred in the culturing medium. […] Cells were counted in a Neubauer chamber after labelling with Tripan-Blue. […]
Cells were incubated during 72-96 h in incubator under CO2 atmosphere at 37° C. Cell viability was measured by means of Alamar Blue® (Biosource DAL1100) and CYTELL™, after treatment with Propidium iodide and Hoechst (GE Healthcare), following manufacturer instructions. […]

Row | Compound | pEC50 [1] | pEC50 [2] | other results
1 | RRRRRRRAAKVVILKKATEYVHS-NH2 (C-terminus assumed) [IDP-intwtLN10, reference compound] | < 4.00 | < 4.00 | inhibiting cancer cell proliferation (in words) (tumor cell lines): inactive
2 | CC(C)C[C@@H]1NC(=O)[C@H](Cc2ccccc2)NC(=O)[C@H](CO)NC(=O)[C@H](CO)NC(=O)C(C)(NC(=O)[C@H](CC(C)C)NC(=O)[C@H](CC(=O)O)NC(=O)[C@H](CC(N)=O)NC(=O)[C@H](CCCNC(=N)N)NC(=O)[C@H](CCCNC(=N)N)NC(=O)[C@H](CCC(N)=O)NC(=O)[C@@H](N)CCCNC(=N)N)CCCCCCC=CCCCC(C)(C(=O)N[C@@H](CC(=O)O)C(=O)N[C@@H](Cc2c[nH]cn2)C(N)=O)NC(=O)[C@H](CC(C)C)NC(=O)[C@H]([C@@H](C)O)NC1=O (stereo partly shown) [IDP-NS16] (H-RQRRNDL[X1]SSFLTL[ξαMeNle(6-ylidene)]DH-NH2; staple 8-15; N-terminus and C-terminus assumed) | ~5.00 | ~4.82 | –
3 | RQIKIWFQNRRMKWKKRQRRNDLRSSFLTLRDHVP-NH2 [NLCa02] | – | – | anti-cancer activity (in words) (tumor cell lines; tumor cell lines): anti-cancer activity; pEC50 ([2]; RG1 cell line, 72-96 h incubation): ~5.30
4 | CC[C@H](C)[C@@H]1NC(=O)[C@H](C(C)C)NC(=O)[C@H](C(C)C)NC(=O)C(C)(NC(=O)[C@H](C)NC(=O)[C@H](C)N)CCCCCCC=CCCCC(C)(C(=O)N[C@H](C(=O)N[C@@H](CCC(=O)O)C(=O)N[C@@H](Cc2ccc(O)cc2)C(=O)N[C@H](C(=O)N[C@@H](Cc2c[nH]cn2)C(=O)N[C@@H](CO)C(N)=O)C(C)C)[C@@H](C)O)NC(=O)[C@H](CCCCN)NC(=O)[C@H](CCCCN)NC(=O)[C@H](CC(C)C)NC1=O (stereo partly shown) [IDP-NS10] (H-AA[X1]VVILKK[ξαMeNle(6-ylidene)]TEYVHS-NH2; staple 3-10; N-terminus and C-terminus assumed) | ~4.30 | ~5.15 | pEC50 [3]: ~5.00; pEC50 [4]: ~5.40; pEC50 [5]: ~5.12; pEC50 [6]: ~5.30; pEC50 [7]: ~5.15; pEC50 [8]: ~5.30
5 | AAKVVILKKATEYVHS-NH2 (C-terminus assumed) [IDP-wtLN10, reference compound] | < 4.00 | < 4.00 | inhibiting cancer cell proliferation (in words) (tumor cell lines): not effective
6 | CC(C)C[C@H](NC(=O)[C@H](CC(=O)O)NC(=O)[C@H](CC(N)=O)NC(=O)[C@H](CCCNC(=N)N)NC(=O)[C@@H](N)CCCNC(=N)N)C(=O)N[C@@H](CCCNC(=N)N)C(=O)N[C@@H](CO)C(=O)NC1(C)CCCCCCC=CCCCC(C)(C(=O)N[C@H](C(=O)N2CCC[C@H]2C(N)=O)C(C)C)NC(=O)[C@H](CC(=O)O)NC(=O)[C@H](CCCNC(=N)N)NC(=O)[C@H](CC(C)C)NC(=O)[C@H]([C@@H](C)O)NC(=O)[C@H](CC(C)C)NC(=O)[C@H](Cc2ccccc2)NC1=O (stereo partly shown) [Na05] (H-RRNDLRS[X1]FLTLRD[ξαMeNle(6-ylidene)]VP-NH2; staple 8-15; N-terminus and C-terminus assumed) | – | ~5.00 | –
7 | CC(C)C[C@H](NC(=O)[C@H](Cc1ccccc1)NC(=O)C1(C)CCCC=CCCCC(C)(NC(=O)[C@H](CC(N)=O)NC(=O)[C@H](CCCNC(=N)N)NC(=O)[C@H](CCCNC(=N)N)NC(=O)[C@H](CCC(N)=O)NC(=O)[C@@H](N)CCCNC(=N)N)C(=O)N[C@@H](CC(C)C)C(=O)N[C@@H](CCCNC(=N)N)C(=O)N[C@@H](CO)C(=O)N1)C(=O)N[C@H](C(=O)N[C@@H](CC(C)C)C(=O)N[C@@H](CCCNC(=N)N)C(=O)N[C@@H](CC(=O)O)C(=O)N[C@@H](Cc1c[nH]cn1)C(N)=O)[C@@H](C)O (stereo partly shown) [IDP-NS02] (H-RQRRN[ξαMeNle(6-ylidene)]LRS[ξαMeNle(6-ylidene)]FLTLRDH-NH2; staple 6-10; N-terminus and C-terminus assumed) | < 4.00 | < 4.00 | pEC50 [9]: ~5.30
